Reference: patent US12303511B2 (priority 2018, dated 2025)

Tests used:
Gpr139−/− mice [1] = conditions: Gpr139−/− mice vs wild-type, multiple drug doses
[2] = system: transgenic C. elegans (tgMOR) that express mammalian MOR; conditions: in vivo
Gpr139−/− mice [3] = experiment: Conditioned place preference paradigm; assay type: in vivo; conditions: Gpr139−/− mice vs wild-type

In the case of CN1CC[C@]23c4c5ccc(O)c4O[C@H]2[C@@H](O)C=C[C@H]3[C@H]1C5 [morphine], the “analgesia, maximal response and duration of effect” value (Gpr139−/− mice [1]) is reported as “significantly increased morphine analgesia”, the “time to maximum paralysis and recovery” value [2] is reported as “reached maximum paralysis and recovered more quickly” and the rewarding effects (Gpr139−/− mice [3]) is reported as “substantially augmented responses”.
